The results in this text go back to US20100087534A1, “Use of a Photosensitizing Agent in the Treatment or Prevention of an Inflammation-Associated Disorder in the Gastrointestinal Tract of a Mammal” (priority 2005, published 2010).

Data set [1] concerns CD4+ cells in the inflamed colonic mucosa. The data set can be described thus: Annexin-V mediated detection of apoptosis in CD4+ cells of colonic mucosa. The data set is classed as in vivo, SCID mice. The following applies: time zero reference 1.8±0.2%. Here is the method: PDT was performed with a photosensitizing agent (δ-ALA) dose of 15 mg/kg, administered 3 hours before the illumination with the energy dose of 10 J/cm^2 per gastrointestinal tract tissue.
For Annexin-V mediated detection of apoptosis mice were sacrificed 4 or 20 hours after low dose PDT later. Untreated inflamed mice were also sacrificed and were considered as the time zero reference. In order to extract cells from the colonic mucosa, treated portions of the colons, or equivalent portions in untreated mice, were collected, cut into small pieces and individually incubated for 20 minutes at room temperature under constant agitation in a PBS solution containing 5 mM EDTA. […] Cells were then analyzed through a FACscan flowcytometer (Becton Dickinson), once in the absence of propidium iodide (PI) and once in the presence of PI in order to identify population of viable cells. The percentage of Annexin-V^+ cells within the CD4^+ population was finally calculated based on a forward and side scatter gated population consisting of viable cells (>98% of PI negative cells) and containing the most percentage of CD4^+ cells (>80%).

In data set [2] the test system is SCID mice with colitis induced by transfer of CD4+CD45RBhigh T-cells. The data set can be described thus: PDT in CD4+CD45RBhigh transfer colitis, clinical and endoscopic follow-up (Example 1). The data set is classed as in vivo. Here is the method: b) A rigid mini-endoscope Hopkins I (vision direct 0°, length 10 cm, diameter 1.9 mm, Anklin, Binningen, Switzerland) with a 9 Charrière (Ch) tube and a channel for instrumentation (Flexible biopsy forceps Ch 3, 53 cm length) coupled on the Coloview Basic equipment (light source Xenon 175 and Endovision Telecam SLB; Storz Inc, Tuttlingen, Germany) and the home made air inflation system (see above). […] First the colonoscopy technique was optimised in 10 wild type BALB/c mice and 10 SCID mice, which were colonoscoped repeatedly (3 times within a 2 weeks time period). Afterwards the accuracy of colonoscopy in diagnosis colitis was evaluated in BALB/c mice with sodium dextran sulfate (DSS) induced colitis and in SCID mice with colitis induced by transfer of a subpopulation of CD4+CD45RBhigh T-cells. For this purpose the mice were colonoscoped at diverse time points after onset of DSS administration or T-cell transfer and the endosocpic image was compared with the endoscopic image of normal mice and the histology after sacrificing the mice.
To induce CD4+ CD45RBhigh transfer colitis, T cells used for the adoptive transfer of the SCID mice were obtained from the spleens of six weeks old wild type BALB/c mice that were housed under specific pathogen-free (SPF) conditions at our animal care facility. Mice were sacrificed by cervical dislocation under anesthesia and spleen were recovered and kept in cold RPMI 1640 medium complemented with a final concentration of 2% fetal calf serum (FCS) until processing. The tissue was forced through 70 μm and 40 μm nylon meshes and washed. Spleen cells were then centrifugated and the pellet was resuspended in 5 ml of cold medium for counting. The cellular preparation was then enriched in CD4+ cells by magnetic cell sorting using CD4 (L3T4) MACS microbeads (Miltenyi Biotec, Gladbach, Germany). The enriched cells were then stained using fluorescein isothiocynate (FITC)-conjugated anti-CD4 and phyoerythrin (PE)—conjugated anti-CD45RB monoclonal antibodies (BD, Biosciences Pharmingen, San Diego, USA). CD4+CD45RB high cells were sorted by FACS, resuspended in PBS at the concentration of 10^6 cells/ml and finally 10^5 cells were injected intravenously under sterile conditions into 4-6 weeks old SCID mice.
Colonoscopy could safely be performed in normal BALB/c mice and SCID mice. The mouse colon could be intubated up to the right flexure. The length of the accessible mouse colon was approximately 4 cm with the rectum comprised. In DSS induced colitis a correlation between colitis and weight loss was observed, whereas in SCID mice with colitis after CD4+CD45RB^high T-cell transfer, endoscopic signs of colitis developed earlier as weight loss and the correlation between endoscopic signs of colitis and weight loss was less good. The colitis in DSS mice was segmental, the rectum was always spared, erythema, ulcerations, changes of the normal vascular pattern could be observed. […] Furthermore, since the length of the accessible mouse colon was only about 4 cm, they changed their scoring system concerning the length.

Where [3] appears, read: of the 4 mice which developed signs of severe disease.

`NCC(=O)CCC(=O)O` [δ-ALA, 5-aminolevulinic acid]: the “percentage of Annexin V+ cells in the CD4+/PI- population” value in data set [1] (4 hours after low dose PDT, P=0.0043) is 3.0±0.3%. For the same compound, the “percentage of Annexin V+ cells in the CD4+/PI- population” value in data set [1] (20 hours after low dose PDT, P=0.0012) was 4.6±0.5%. Also, the “signs of photosensitivity or damage of the mucosa” value in data set [2] (any of the animals) is reported as “No signs of photosensitivity or damage of the mucosa was observed”. In addition, the “endoscopic severity index after PDT” value in data set [2] (mice that could be followed up by colonoscopy) is recorded as “improved significantly”. In data set [2] (setting [3]), the “mice cured by PDT” value is listed as 2 mice and the “mice with improved clinical signs after PDT” value is “one”. In addition, the “mice without clinical response” value in data set [2] (one of the 4 mice which developed signs of severe disease) was found to be 25%.
